How the values were obtained:
Type in all cases: in vivo
Echinochloa crus-galli = experiment: Pre-emergence herbicidal action, ECHCG; parameters: key to Herbicidal action against ECHCG: % activity: 100 = plants have died, 0 = like control plants; conditions: for herbicidal activity ECHCG: scored visually after 3 weeks vs untreated controls (100% = plants have died); for Herbicidal action against ECHCG: comparative experiment
Outline: (§1)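 Greenhouse pre-emergence test: formulated compound (WP or EC) applied in water to the soil covering sown seeds, 600–800 l/ha, 0.2% wetting agent. Scored visually in percent at 3 weeks versus untreated plants.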

Pharbitis purpurea [1] = experiment: Pre-emergence herbicidal action, PHBPU; conditions: for herbicidal activity PHBPU: scored visually after 3 weeks vs untreated controls (100% = plants have died)
Outline: as §1

Setaria viridis [2] = experiment: Pre-emergence herbicidal action, SETVI; parameters: key to Herbicidal action against SETVI: % activity: 100 = plants have died, 0 = like control plants; conditions: for herbicidal activity SETVI: scored visually after 3 weeks vs untreated controls (100% = plants have died); for Herbicidal action against SETVI: comparative experiment
Outline: as §1

Amaranthus retroflexus = experiment: Post-emergence herbicidal action, AMARE; parameters: key: % herbicidal action vs untreated; 100 = plants died, 0 = like control; conditions: for Herbicidal action against AMARE: comparative experiment
Outline: (§2)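 Values are visual estimates of herbicidal action, from 0% (as untreated) to 100% (dead), made about 3 weeks after plants at one-leaf stage in sandy loam were sprayed with the formulated compound.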

Pharbitis purpurea [3] = experiment: Post-emergence herbicidal action, PHBPU
Outline: as §2

Setaria viridis [4] = experiment: Post-emergence herbicidal action, SETVI; parameters: key: % herbicidal action vs untreated; 100 = plants died, 0 = like control; conditions: for Herbicidal action against SETVI: comparative experiment
Outline: as §2

[5] = post-emergence, 20 g of a.i./ha

`COCC[S+]([O-])Cc1c(C(F)(F)F)ccc(C(=O)Nc2nnnn2C)c1Cl` (racemic) [Example 1-306] was tested, and the “herbicidal activity ECHCG” value (Echinochloa crus-galli; dosage 320 g/ha) was 100%, the “herbicidal activity PHBPU” value (Pharbitis purpurea [1]; dosage 320 g/ha) was 90% and the “herbicidal activity SETVI” value (Setaria viridis [2]; dosage 320 g/ha) was 90%. For the same molecule, the “herbicidal action AMARE” value (Amaranthus retroflexus; Dosage 80 g/ha) was 100, the “herbicidal action PHBPU” value (Pharbitis purpurea [3]; Dosage 80 g/ha) was 90 and the “herbicidal action SETVI” value (Setaria viridis [4]; Dosage 80 g/ha) was 90.

With `Cn1nnnc1NC(=O)c1ccc(C(F)(F)F)c(C[S+]([O-])CC(F)(F)F)c1Cl` (racemic) [Example 1-312] the “herbicidal activity ECHCG” value (Echinochloa crus-galli; dosage 320 g/ha) was 100%, the “herbicidal activity PHBPU” value (Pharbitis purpurea [1]; dosage 320 g/ha) was 90% and the “herbicidal activity SETVI” value (Setaria viridis [2]; dosage 320 g/ha) was 100%. For the same molecule, the “herbicidal action AMARE” value (Amaranthus retroflexus; post-emergence, dosage 80 g/ha) was 100%, the “herbicidal action PHBPU” value (Pharbitis purpurea [3]; post-emergence, dosage 80 g/ha) was 100% and the “herbicidal action SETVI” value (Setaria viridis [4]; post-emergence, dosage 80 g/ha) was 100%.

For `Cn1nnnc1NC(=O)c1ccc(I)c(C[S+](C)[O-])c1Cl` (racemic) [Example 1-363], the “herbicidal activity ECHCG” value (Echinochloa crus-galli; dosage 320 g/ha) was 100%, the “herbicidal activity PHBPU” value (Pharbitis purpurea [1]; dosage 320 g/ha) was 100% and the “Herbicidal action against SETVI” value (Setaria viridis [2]; 20 g of a.i./ha) was 90. For the same molecule, the “herbicidal activity SETVI” value (Setaria viridis [2]; dosage 320 g/ha) was 100%, the “herbicidal action AMARE” value (Amaranthus retroflexus; post-emergence, dosage 80 g/ha) was 100% and the “herbicidal action PHBPU” value (Pharbitis purpurea [3]; post-emergence, dosage 80 g/ha) was 90%. For the same molecule, the “herbicidal action SETVI” value (Setaria viridis [4]; post-emergence, dosage 80 g/ha) was 100%.

In the case of `CC[S+]([O-])Cc1c(C(F)(F)F)ccc(C(=O)Nc2nnnn2C)c1Br` (racemic) [Example 1-384], the “Herbicidal action against ECHCG” value (Echinochloa crus-galli; 80 g of a.i./ha) was 100, the “herbicidal activity ECHCG” value (Echinochloa crus-galli; dosage 320 g/ha) was 100% and the “herbicidal activity PHBPU” value (Pharbitis purpurea [1]; dosage 320 g/ha) was 90%. The “Herbicidal action against SETVI” value (Setaria viridis [2]; 80 g of a.i./ha) was 100, the “herbicidal activity SETVI” value (Setaria viridis [2]; dosage 320 g/ha) was 100% and the “Herbicidal action against AMARE” value (Amaranthus retroflexus; [5]) was 90. For the same molecule, the “herbicidal action AMARE” value (Amaranthus retroflexus; post-emergence, dosage 80 g/ha) was 90%, the “herbicidal action PHBPU” value (Pharbitis purpurea [3]; post-emergence, dosage 80 g/ha) was 90% and the “Herbicidal action against SETVI” value (Setaria viridis [4]; [5]) was 90. For the same molecule, the “herbicidal action SETVI” value (Setaria viridis [4]; post-emergence, dosage 80 g/ha) was 90%.

For `CSCc1c(C(F)(F)F)ccc(C(=O)Nc2nnnn2C)c1C` [Example 1-83], the “herbicidal activity ECHCG” value (Echinochloa crus-galli; dosage 320 g/ha) was 100%, the “herbicidal activity PHBPU” value (Pharbitis purpurea [1]; dosage 320 g/ha) was 80% and the “herbicidal activity SETVI” value (Setaria viridis [2]; dosage 320 g/ha) was 100%. The “herbicidal action AMARE” value (Amaranthus retroflexus; post-emergence, dosage 80 g/ha) was 100%, the “herbicidal action PHBPU” value (Pharbitis purpurea [3]; post-emergence, dosage 80 g/ha) was 100% and the “herbicidal action SETVI” value (Setaria viridis [4]; post-emergence, dosage 80 g/ha) was 100%.

`CCS(=O)(=O)Cc1c(C(F)(F)F)ccc(C(=O)Nc2nnnn2C)c1C` [Example 1-88] was tested, and the “herbicidal action ECHCG” value (Echinochloa crus-galli; dosage 320 g/ha) was 100%, the “herbicidal action PHBPU” value (Pharbitis purpurea [1]; dosage 320 g/ha) was 90% and the “herbicidal action SETVI” value (Setaria viridis [2]; dosage 320 g/ha) was 100%. The “herbicidal action AMARE” value (Amaranthus retroflexus; Dosage 80 g/ha) was 90, the “herbicidal action PHBPU” value (Pharbitis purpurea [3]; Dosage 80 g/ha) was 90 and the “herbicidal action SETVI” value (Setaria viridis [4]; Dosage 80 g/ha) was 90.

`CSc1c(C(=O)Nc2nnnn2C)ccc(C(F)(F)F)c1C[S+](C)[O-]` (centres unmarked) [Example 1-162] was tested, and the “Herbicidal action against ECHCG” value (Echinochloa crus-galli; 20 g of a.i./ha) was 90, the “herbicidal activity ECHCG” value (Echinochloa crus-galli; dosage 320 g/ha) was 100% and the “Herbicidal action against PHBPU” value (Pharbitis purpurea [1]; comparative experiment, 20 g of a.i./ha) was 60. For the same molecule, the “herbicidal activity PHBPU” value (Pharbitis purpurea [1]; dosage 320 g/ha) was 90%, the “herbicidal activity SETVI” value (Setaria viridis [2]; dosage 320 g/ha) was 100% and the “herbicidal action AMARE” value (Amaranthus retroflexus; post-emergence, dosage 80 g/ha) was 100%. The “herbicidal action PHBPU” value (Pharbitis purpurea [3]; post-emergence, dosage 80 g/ha) was 100% and the “herbicidal action SETVI” value (Setaria viridis [4]; post-emergence, dosage 80 g/ha) was 100%.

`CSc1c(C(=O)Nc2nnnn2C)ccc(C(F)F)c1C[S+](C)[O-]` (centres unmarked) [Example 1-171] was tested, and the “herbicidal activity ECHCG” value (Echinochloa crus-galli; dosage 320 g/ha) was 100%, the “herbicidal activity PHBPU” value (Pharbitis purpurea [1]; dosage 320 g/ha) was 90% and the “herbicidal activity SETVI” value (Setaria viridis [2]; dosage 320 g/ha) was 100%. The “herbicidal action AMARE” value (Amaranthus retroflexus; Dosage 80 g/ha) was 100, the “herbicidal action PHBPU” value (Pharbitis purpurea [3]; Dosage 80 g/ha) was 90 and the “herbicidal action SETVI” value (Setaria viridis [4]; Dosage 80 g/ha) was 100.

With `CCSCc1c(C(F)(F)F)ccc(C(=O)Nc2nnnn2C)c1SCC` [Example 1-182] the “Herbicidal action against ECHCG” value (Echinochloa crus-galli; 20 g of a.i./ha) was 80, the “herbicidal activity ECHCG” value (Echinochloa crus-galli; dosage 320 g/ha) was 100% and the “herbicidal activity PHBPU” value (Pharbitis purpurea [1]; dosage 320 g/ha) was 80%. The “herbicidal activity SETVI” value (Setaria viridis [2]; dosage 320 g/ha) was 100%, the “herbicidal action AMARE” value (Amaranthus retroflexus; Dosage 80 g/ha) was 90 and the “Herbicidal action against AMARE” value (Amaranthus retroflexus; post-emergence, 5 g of a.i./ha) was 80. For the same molecule, the “herbicidal action PHBPU” value (Pharbitis purpurea [3]; Dosage 80 g/ha) was 90, the “herbicidal action SETVI” value (Setaria viridis [4]; Dosage 80 g/ha) was 90 and the “Herbicidal action against SETVI” value (Setaria viridis [4]; post-emergence, 5 g of a.i./ha) was 70.

For `CCSCc1c(C(F)(F)F)ccc(C(=O)Nc2nnnn2C)c1Cl` [Example 1-299], the “herbicidal activity ECHCG” value (Echinochloa crus-galli; dosage 320 g/ha) was 100%, the “herbicidal activity PHBPU” value (Pharbitis purpurea [1]; dosage 320 g/ha) was 90% and the “Herbicidal action against SETVI” value (Setaria viridis [2]; 20 g of a.i./ha) was 90. The “herbicidal activity SETVI” value (Setaria viridis [2]; dosage 320 g/ha) was 100%, the “herbicidal action AMARE” value (Amaranthus retroflexus; post-emergence, dosage 80 g/ha) was 100% and the “herbicidal action PHBPU” value (Pharbitis purpurea [3]; post-emergence, dosage 80 g/ha) was 90%. The “herbicidal action SETVI” value (Setaria viridis [4]; post-emergence, dosage 80 g/ha) was 90%.

`Cn1nnnc1NC(=O)c1ccc(C(F)(F)F)c(CSC2CC2)c1Cl` [Example 1-302] was tested, and the “herbicidal activity ECHCG” value (Echinochloa crus-galli; dosage 320 g/ha) was 100%, the “herbicidal activity PHBPU” value (Pharbitis purpurea [1]; dosage 320 g/ha) was 100% and the “herbicidal activity SETVI” value (Setaria viridis [2]; dosage 320 g/ha) was 100%. The “herbicidal action AMARE” value (Amaranthus retroflexus; post-emergence, dosage 80 g/ha) was 100%, the “herbicidal action PHBPU” value (Pharbitis purpurea [3]; post-emergence, dosage 80 g/ha) was 100% and the “herbicidal action SETVI” value (Setaria viridis [4]; post-emergence, dosage 80 g/ha) was 100%.
